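Values below derive from 48-hour exposures of cells grown in 96-well plates, with endpoints linearly interpolated between the two concentrations bracketing the appropriate inhibition level. The concentration for 50% growth inhibition is given as GI50.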 Active and inactive are the calls of the source. Cut-off read from the data, not from the text of the source: active = GI50 up to about 1.1 µM and inactive = higher.
Legend:
Experiment in all cases: inhibition of tumour cell growth, NCI panel, 48 h
SF-539 = tested on: SF-539
HCT-15 = tested on: HCT-15
U-251 = tested on: U-251
Hs-578T = tested on: Hs-578T
HL-60 = tested on: HL-60
OVCAR-5 = tested on: OVCAR-5
SF-268 = tested on: SF-268
SK-MEL-2 = tested on: SK-MEL-2
BT-549 = tested on: BT-549
NCI-H522 = tested on: NCI-H522
SK-MEL-5 = tested on: SK-MEL-5
CAKI-1 = tested on: CAKI-1
CCRF-CEM = tested on: CCRF-CEM
SR = tested on: SR
COLO 205 = tested on: COLO 205
HCT-116 = tested on: HCT-116
OVCAR-8 = tested on: OVCAR-8
DU-145 = tested on: DU-145
SW-620 = tested on: SW-620
HOP-92 = tested on: HOP-92
LOX IMVI = tested on: LOX IMVI
SK-MEL-28 = tested on: SK-MEL-28
RXF 393 = tested on: RXF 393
SNB-19 = tested on: SNB-19
T47D = tested on: T47D
PC-3 = tested on: PC-3
UACC-257 = tested on: UACC-257
EKVX = tested on: EKVX
IGROV-1 = tested on: IGROV-1
HOP-62 = tested on: HOP-62
MDA-MB-231 = tested on: MDA-MB-231
A498 = tested on: A498
SNB-75 = tested on: SNB-75
K562 = tested on: K562
SK-OV-3 = tested on: SK-OV-3
786-0 = tested on: 786-0
HT-29 = tested on: HT-29
Malme-3M = tested on: Malme-3M
UACC-62 = tested on: UACC-62
HCC 2998 = tested on: HCC 2998
NCI-H23 = tested on: NCI-H23
UO-31 = tested on: UO-31
A549 = tested on: A549
M14 = tested on: M14
MOLT-4 = tested on: MOLT-4
SN12C = tested on: SN12C
OVCAR-4 = tested on: OVCAR-4
OVCAR-3 = tested on: OVCAR-3
MDA-N = tested on: MDA-N
KM12 = tested on: KM12
MCF7 = tested on: MCF7
NCI-H226 = tested on: NCI-H226
SF-295 = tested on: SF-295
TK-10 = tested on: TK-10
ACHN = tested on: ACHN
NCI-H460 = tested on: NCI-H460
MDA-MB-435 = tested on: MDA-MB-435
NCI/ADR-RES = tested on: NCI/ADR-RES
RPMI-8226 = tested on: RPMI-8226

COC(=O)C1=C(C(=O)OC)SC(=C2SCSC3=C2SC(C(=O)OC)=C(C(=O)OC)C32SC3=C(CCCC3)S2)S1
GI50 (SF-539): 44.5 µM (inactive)
GI50 (HCT-15): > 100 µM
GI50 (U-251): 47.6 µM (inactive)
GI50 (Hs-578T): > 100 µM (inactive)
GI50 (HL-60): > 100 µM (inactive)
GI50 (OVCAR-5): > 100 µM (inactive)
GI50 (SF-268): > 100 µM (inactive)
GI50 (SK-MEL-2): > 100 µM (inactive)
GI50 (BT-549): > 100 µM (inactive)
GI50 (NCI-H522): > 100 µM (inactive)
GI50 (SK-MEL-5): > 100 µM (inactive)
GI50 (CAKI-1): > 100 µM (inactive)
GI50 (CCRF-CEM): > 100 µM (inactive)
GI50 (SR): > 100 µM (inactive)
GI50 (COLO 205): > 100 µM (inactive)
GI50 (HCT-116): > 100 µM (inactive)
GI50 (OVCAR-8): > 100 µM (inactive)
GI50 (DU-145): > 100 µM (inactive)
GI50 (SW-620): > 100 µM (inactive)
GI50 (HOP-92): 56.2 µM (inactive)
GI50 (LOX IMVI): > 100 µM (inactive)
GI50 (SK-MEL-28): > 100 µM (inactive)
GI50 (RXF 393): 19.4 µM (inactive)
GI50 (SNB-19): 55.7 µM (inactive)
GI50 (T47D): > 100 µM (inactive)
GI50 (PC-3): > 100 µM (inactive)
GI50 (UACC-257): > 100 µM (inactive)
GI50 (EKVX): > 100 µM (inactive)
GI50 (IGROV-1): > 100 µM (inactive)
GI50 (HOP-62): > 100 µM (inactive)
GI50 (MDA-MB-231): 95.3 µM (inactive)
GI50 (A498): 99.8 µM (inactive)
GI50 (SNB-75): 13.9 µM (inactive)
GI50 (K562): > 100 µM (inactive)
GI50 (SK-OV-3): > 100 µM (inactive)
GI50 (786-0): 74.1 µM (inactive)
GI50 (HT-29): > 100 µM (inactive)
GI50 (Malme-3M): > 100 µM (inactive)
GI50 (UACC-62): > 100 µM (inactive)
GI50 (HCC 2998): > 100 µM (inactive)
GI50 (NCI-H23): > 100 µM (inactive)
GI50 (UO-31): > 100 µM (inactive)
GI50 (A549): > 100 µM (inactive)
GI50 (M14): > 100 µM (inactive)
GI50 (MOLT-4): > 100 µM (inactive)
GI50 (SN12C): > 100 µM (inactive)
GI50 (OVCAR-4): > 100 µM (inactive)
GI50 (OVCAR-3): > 100 µM (inactive)
GI50 (MDA-N): > 100 µM (inactive)
GI50 (KM12): > 100 µM (inactive)
GI50 (MCF7): > 100 µM (inactive)
GI50 (NCI-H226): > 100 µM (inactive)
GI50 (SF-295): 83.9 µM (inactive)
GI50 (TK-10): 32.4 µM (inactive)
GI50 (ACHN): 62.2 µM (inactive)
GI50 (NCI-H460): > 100 µM (inactive)
GI50 (MDA-MB-435): > 100 µM (inactive)
GI50 (NCI/ADR-RES): > 100 µM (inactive)

Nc1cccc(C#Cc2cccc(C#Cc3cccc(N)n3)n2)n1
GI50 (SF-539): 39.9 µM (inactive)
GI50 (HCT-15): > 100 µM
GI50 (U-251): > 100 µM (inactive)
GI50 (Hs-578T): > 100 µM (inactive)
GI50 (OVCAR-5): > 100 µM (inactive)
GI50 (SF-268): > 100 µM (inactive)
GI50 (SK-MEL-2): > 100 µM (inactive)
GI50 (BT-549): > 100 µM (inactive)
GI50 (NCI-H522): > 100 µM (inactive)
GI50 (SK-MEL-5): 47.4 µM (inactive)
GI50 (CAKI-1): > 100 µM (inactive)
GI50 (RPMI-8226): 91 µM (inactive)
GI50 (CCRF-CEM): 5.85 µM (inactive)
GI50 (SR): 14 µM (inactive)
GI50 (COLO 205): > 100 µM (inactive)
GI50 (HCT-116): > 100 µM (inactive)
GI50 (OVCAR-8): > 100 µM (inactive)
GI50 (DU-145): > 100 µM (inactive)
GI50 (SW-620): > 100 µM (inactive)
GI50 (HOP-92): > 100 µM (inactive)
GI50 (LOX IMVI): > 100 µM (inactive)
GI50 (RXF 393): > 100 µM (inactive)
GI50 (SNB-19): > 100 µM (inactive)
GI50 (T47D): 76.9 µM (inactive)
GI50 (PC-3): > 100 µM (inactive)
GI50 (UACC-257): > 100 µM (inactive)
GI50 (EKVX): > 100 µM (inactive)
GI50 (IGROV-1): 69.5 µM (inactive)
GI50 (HOP-62): > 100 µM (inactive)
GI50 (MDA-MB-231): > 100 µM (inactive)
GI50 (A498): > 100 µM (inactive)
GI50 (SNB-75): > 100 µM (inactive)
GI50 (K562): > 100 µM (inactive)
GI50 (SK-OV-3): > 100 µM (inactive)
GI50 (786-0): 55.6 µM (inactive)
GI50 (UACC-62): > 100 µM (inactive)
GI50 (HCC 2998): > 100 µM (inactive)
GI50 (NCI-H23): > 100 µM (inactive)
GI50 (UO-31): > 100 µM (inactive)
GI50 (M14): > 100 µM (inactive)
GI50 (MOLT-4): 32.8 µM (inactive)
GI50 (SN12C): 79.3 µM (inactive)
GI50 (OVCAR-4): > 100 µM (inactive)
GI50 (OVCAR-3): > 100 µM (inactive)
GI50 (MDA-N): 79.3 µM (inactive)
GI50 (KM12): > 100 µM (inactive)
GI50 (MCF7): > 100 µM (inactive)
GI50 (NCI-H226): > 100 µM (inactive)
GI50 (SF-295): 66.7 µM (inactive)
GI50 (TK-10): > 100 µM (inactive)
GI50 (ACHN): > 100 µM (inactive)
GI50 (NCI-H460): 37.2 µM (inactive)
GI50 (MDA-MB-435): 89.9 µM (inactive)
GI50 (NCI/ADR-RES): > 100 µM (inactive)

COc1ccc(Cc2ccc3nc(O)cc(C)c3c2)cc1S(=O)(=O)O
GI50 (SF-539): > 100 µM (inactive)
GI50 (HCT-15): > 100 µM
GI50 (U-251): > 100 µM (inactive)
GI50 (Hs-578T): > 100 µM (inactive)
GI50 (HL-60): > 100 µM (inactive)
GI50 (OVCAR-5): > 100 µM (inactive)
GI50 (SF-268): > 100 µM (inactive)
GI50 (SK-MEL-2): > 100 µM (inactive)
GI50 (BT-549): > 100 µM (inactive)
GI50 (NCI-H522): > 100 µM (inactive)
GI50 (SK-MEL-5): > 100 µM (inactive)
GI50 (CAKI-1): > 100 µM (inactive)
GI50 (RPMI-8226): > 100 µM (inactive)
GI50 (CCRF-CEM): > 100 µM (inactive)
GI50 (SR): > 100 µM (inactive)
GI50 (COLO 205): > 100 µM (inactive)
GI50 (HCT-116): > 100 µM (inactive)
GI50 (OVCAR-8): > 100 µM (inactive)
GI50 (DU-145): > 100 µM (inactive)
GI50 (SW-620): > 100 µM (inactive)
GI50 (HOP-92): > 100 µM (inactive)
GI50 (LOX IMVI): > 100 µM (inactive)
GI50 (SK-MEL-28): > 100 µM (inactive)
GI50 (RXF 393): > 100 µM (inactive)
GI50 (SNB-19): > 100 µM (inactive)
GI50 (T47D): > 100 µM (inactive)
GI50 (PC-3): > 100 µM (inactive)
GI50 (UACC-257): > 100 µM (inactive)
GI50 (EKVX): > 100 µM (inactive)
GI50 (IGROV-1): > 100 µM (inactive)
GI50 (HOP-62): > 100 µM (inactive)
GI50 (MDA-MB-231): > 100 µM (inactive)
GI50 (A498): > 100 µM (inactive)
GI50 (SNB-75): > 100 µM (inactive)
GI50 (K562): > 100 µM (inactive)
GI50 (SK-OV-3): > 100 µM (inactive)
GI50 (786-0): > 100 µM (inactive)
GI50 (HT-29): > 100 µM (inactive)
GI50 (Malme-3M): > 100 µM (inactive)
GI50 (UACC-62): > 100 µM (inactive)
GI50 (NCI-H23): > 100 µM (inactive)
GI50 (UO-31): > 100 µM (inactive)
GI50 (A549): > 100 µM (inactive)
GI50 (M14): > 100 µM (inactive)
GI50 (MOLT-4): > 100 µM (inactive)
GI50 (SN12C): > 100 µM (inactive)
GI50 (OVCAR-4): > 100 µM (inactive)
GI50 (OVCAR-3): > 100 µM (inactive)
GI50 (MDA-N): > 100 µM (inactive)
GI50 (KM12): > 100 µM (inactive)
GI50 (MCF7): > 100 µM (inactive)
GI50 (NCI-H226): > 100 µM (inactive)
GI50 (SF-295): > 100 µM (inactive)
GI50 (TK-10): > 100 µM (inactive)
GI50 (ACHN): > 100 µM (inactive)
GI50 (NCI-H460): > 100 µM (inactive)
GI50 (MDA-MB-435): > 100 µM (inactive)
GI50 (NCI/ADR-RES): > 100 µM (inactive)

Source: ChEMBL document CHEMBL1201862, “PubChem BioAssay data set” (2004)
